The results in this text go back to the NIST ThermoML archive (doi:10.1016/j.fluid.2007.03.021).

For the data set the following is noted: Liquid.

Each structure is given as a SMILES string. ± gives the expanded uncertainty stated by the source.

Broadly, the viscosity is the resistance of a fluid to flow. In the case of `CCO` [ethanol], the viscosity (298.15 K, 101.33 kPa, Capillary tube (Ostwald / Ubbelohde) method) was 1.082 ± 0.009 mPa·s. Also, for the setting “Ebulliometric method (Recirculating still)”, the Normal boiling temperature came to 78.28 ± 0.05 °C.
